Experimental data: patent publication US20060167094A1, “Satiety agent” (priority 2005, published 2006)
“And” between values parts separate entries of the source, which are not always exact repeats. Identical values can stand only once.

Tests used:
[1] = Antropyloroduodenal (APD) pressures by manometry during intraduodenal infusion; type: in vivo, human
Text: Subjects attended the laboratory at 0830 after fasting from 2200 the previous night from both solids and liquids. They were intubated with a 17-channel manometric catheter (Dentsleeve; Adelaide, South Australia, Australia) that was inserted through an anesthetized nostril and allowed to pass through the stomach and into the duodenum by peristalsis. The manometric catheter, which consisted of 16 sideholes spaced at 1.5-cm intervals, measures pressures in the antrum, pylorus, and duodenum. Six side holes (channels 1-6) were positioned in the antrum, a 4.5-cm sleeve sensor (channel 7), with two channels present on the back of the sleeve (channels 8 and 9), designed to measure pressure waves occurring over the entire pyloric region, were positioned across the pylorus, and seven channels were positioned in the duodenum (channels 10-16). An additional channel, used for intraduodenal infusions, was positioned 11.75 cm distal to the end of the sleeve sensor. The correct positioning of the catheter, so the sleeve sensor straddled the pylorus, was maintained by continuous measurement of the transmucosal potential difference (TMPD) between the most distal antral channel (channel 6; approximately −40 mV) and the most proximal duodenal channel (channel 10; ˜0 mV). For this purpose, an intravenous cannula filled with sterile saline was placed subcutaneously in the left forearm and used as a reference electrode. All manometric channels were perfused with degassed, distilled water except for the two TMPD channels, which were perfused with degassed 0.9% saline at 0.15 ml/min. An intravenous cannula was also placed into a right forearm vein for blood sampling to measure plasma CCK and GLP-1 concentrations.
(§1) Once the catheter was positioned correctly, fasting motility was monitored until the occurrence of phase III of the interdigestive migrating motor complex (MMC). Immediately after the cessation of phase III activity [at time t=−15 min], a baseline venous blood sample was taken, and a visual analog scale questionnaire (VAS) (see Measurements), assessing appetite-related sensations, was administered. At t=0 min (i.e., during phase I of the MMC), the duodenal infusion of 1) C12, 2) C10, or 3) control solution was commenced and continued for 90 min. APD pressures were monitored throughout the infusion period; blood samples were taken, and the VAS administered every 15 min from t=0 min until t=90 min. At t=90 min, the infusion was terminated, and the subject was immediately extubated and offered a cold buffet-style meal, the composition of which is provided in Table 1. The amount of food offered was in excess of what the subject was expected to consume. The subject was given 30 min (i.e., t=90 min to t=120 min) to consume the meal and instructed to eat until comfortably full. After ingestion of the meal, the subject was monitored for a further 30 min, a further VAS was completed, and blood samples were taken at t=120 and 150 min. The intravenous cannula was then removed, and the subject was allowed to leave the laboratory.
APD pressures. Manometric pressures were digitized, recorded on a computer-based system (PowerMac 7100/75, Apple Computers; Cupertino, Calif.) running commercially available software (HAD, Associate Prof. G S Hebbard, Melbourne, Australia) written in LabView 3.1.1 (National Instruments), and stored for subsequent analysis. APD pressures were analysed for 1) number and amplitude of isolated pyloric pressure waves (IPPWs) and pressure waves (PWs) in the antrum and duodenum and 2) number and length of PW sequences (PWSs) in the duodenum using custom-written software (Gastrointestinal Motility Unit; Utrecht, The Netherlands) modified to our requirements. […]

plasma CCK = test: Plasma CCK concentrations by radioimmunoassay; type: in vivo, human
Method: as §1
Venous blood samples (10 ml) were collected in ice-chilled EDTA-treated tubes containing 400 kIU aprotinin (Trasylol, Bayer Australia) per millilitre of blood. Plasma was separated by centrifugation (3,200 rpm, 15 min, 4° C.) within 30 min of collection and stored at −70° C. until assayed.
Plasma CCK concentrations (in pmol/l) were determined after ethanol extraction using a previously described radioimmunoassay (3). A commercially available antibody (C258, Lot 105H4852, Sigma Chemical) raised in rabbits against the synthetic sulfated CCK-8 was employed. […] The intra-assay coefficient of variation (CV) was 9% and the interassay CV was 27%, with a sensitivity of 2.5 pmol/l. The sensitivity of the assay relates to its reliable detection limit.

[2] = Tolerability of intraduodenal fatty acid infusion (pilot study and randomized study); type: in vivo, human
Method: Fatty acid solutions were prepared using 5.3 g of commercially available food grade saturated free fatty acids, lauric (C12:0) and decanoic (C10:0) acid (Sigma-Aldrich; Milwaukee, Wis.). C12 was dissolved in 0.89 g NaOH (Sigma-Aldrich; St. Louis, Mo.) and distilled water to a total volume of 250 ml. C12 was maintained in solution by heating it to 37° C., with a resulting pH of 8.2. C10 was also dissolved in NaOH (1.21 g), and the pH of the C10 and control (distilled water) solutions was adjusted to 8.2 by the addition of NaOH. All solutions were prepared on the morning of the study and infused at 37° C. […] We chose to infuse the fatty acid and control solutions intraduodenally to ensure uniformity of doses across subjects and study days.
However, during the C12 infusion, the first subject tested reported severe nausea and only tolerated the infusion for 30 min. A second subject, who again reported severe nausea, tolerated the infusion for 60 min.

CCK secretion = settings: gastric infusion, humans; cited from earlier work
[3] = at similar concentrations; cited from earlier work
[4] = system: pancreatic bicarbonate secretion; settings: luminal fatty acid; cited from earlier work
[5] = cited from earlier work
[6] = 90 min infusion, compared with control

## CCCCCCCCCCCC(=O)O [C12, lauric acid]
[1]; [6]
  basal pyloric pressure (tone): increased basal pyloric pressure
  number of antral PWs: decreased the number of antral PWs compared with control
  number of duodenal PWs: decreased the number of duodenal PWs
[1]; C12: 0-15, 15-30 and 30-45 min, C10: 0-15 min
  number of IPPWs compared with control: increased the number of IPPWs
[1]; C12 infusion
  length of antegrade peristalsis in the duodenum: did not abolish but did shorten
[1]; C12 infusion 0.375 kcal/min
  onset of gastrointestinal effects: ~15 min
[1]; between 0-15 and 15-30 min
  amplitude of IPPWs compared with control: increased the amplitude of IPPWs compared with control
[1]; between 15-30 and 30-45 min
  number of IPPWs compared with C10: increased the number of IPPWs
[1]; between 60 and 75 min
  amplitude of IPPWs compared with control: decreased the amplitude of IPPWs
[1]; between 75 and 90 min
  amplitude of IPPWs compared with C10: decreased the amplitude of IPPWs
[1]; compared with C10
  number of duodenal PWSs travelling over three channels (3 to <4.5 cm): decreased the number of waves that travelled over three channels compared with C10
[1]; compared with both C10 and control infusions, trend P=0.080
  amplitude of antral pressures: tended to be lower
[1]; compared with control
  number of duodenal PWSs travelling over six channels (7.5 to <9 cm): decreased the number of waves that travelled over six channels compared with control
  number of duodenal PWSs travelling over three channels (3 to <4.5 cm): no difference between C12 or C10 and control
  number of duodenal PWSs travelling over two channels (1.5 to <3 cm): decreased the number of waves that travelled over two channels compared with control
  number of waves that travelled over nine channels: decreased the number of waves that travelled over nine channels
[1]; intraduodenal infusion 0.375 kcal/min
  motor pattern on visual inspection of pressure traces: antral and duodenal PWs were inhibited and pyloric pressures stimulated
Plasma CCK; during 90 min infusion, compared with control
  plasma CCK concentrations: increased plasma CCK compared with control
Plasma CCK; from start of infusion, then plateaued
  time of rapid rise in plasma CCK: ≤ 15 min
Plasma CCK; in the first 15 min of infusion, 0.375 kcal/min
  magnitude of the rise in plasma CCK: ~12 pmol/L
Plasma CCK; versus levels after the buffet meal following control infusion
  plasma CCK level relative to postprandial level: comparable to postprandial levels after the control infusion
[2]; pilot study, 0.75 kcal/min (n=1)
  time the infusion was tolerated: ~60 min
[2]; pilot study, 1 kcal/min (n=1)
  time the infusion was tolerated: ~60 min
[2]; pilot study, 1 kcal/min and 0.75 kcal/min
  adverse effect limiting the infusion: severe nausea and vomiting
[2]; pilot study, 1.5 kcal/min
  adverse effect limiting the infusion: severe nausea
[2]; pilot study, 1.5 kcal/min, individual subjects
  time the infusion was tolerated: 30 min and 60 min
[2]; randomized study, 0.375 kcal/min, one subject with severe nausea
  time the infusion was tolerated: 30 min
CCK secretion
  stimulation of CCK secretion: reported to stimulate CCK secretion
[3]
  cytotoxicity relative to C18:1: half as cytotoxic as C18:1
[4]
  secretion of pancreatic bicarbonate relative to C10, C16, C18:0, C18:1 and C18:2: more than twice as much
[5]; 0.36 kcal/min
  adverse effects of perfusion into human duodenum: without adverse effects
[5]; in vivo
  rate of emptying from the human stomach: 0.375 kcal/min
